Assay results taken from article PMC10253161, “New 5-Hydroxycoumarin-Based Tyrosyl-DNA Phosphodiesterase I Inhibitors Sensitize Tumor Cell Line to Topotecan” (International Journal of Molecular Sciences, 2023).
Where two headings read alike, the source gives them in different places.

Assays:
[1] = Cytotoxicity of compounds, MTT test, HEK293A; format: cell-based; settings: human, HEK293A cells, compound alone, read-out: CC50 HEK 293A
Procedure: (§1) The cytotoxicity of the compounds to HeLa (human cervical cancer) and HEK293A (human embryonic kidney) cell lines was determined using standard colorimetric MTT-test. Cells were seeded in 96-well plates (5000 cells per well) and cultured in DMEM medium (Invitrogen, Carlsbad, CA, USA) supplemented with 10% fetal bovine serum (FBS) (Invitrogen), penicillin (100 units/mL), and streptomycin (100 μg/mL) at 37 °C and 5% CO2 in a humid atmosphere. Control wells contained 1% DMSO. At 30–50% confluence, the tested compounds were added to the medium. To determine the cytotoxicity of Tdp1 inhibitors, the cells were allowed to attach for 24 h and were treated with compounds with concentrations ranging from 1 to 100 μM for 72 h at 37 °C. All measurements were repeated three times.

TDP1 [2] = molecular target: T1, TDP1 (Homo sapiens, UniProt Q9NUW8); experiment: Real-time fluorescence detection of TDP1 activity (FAM/BHQ1 oligonucleotide biosensor); format: biochemical
T1 construct: made in house
Source text: To determine the inhibitory properties of the new compounds against TDP1 we used a previously designed real-time oligonucleotide biosensor with 5(6)-carboxyfluorescein (FAM) at the 5′ end and fluorophore quencher BHQ1 (Black Hole Quencher-1) at the 3′-end.
The biosensor, 16-mer DNA oligonucleotide (5′-[FAM] AAC GTC AGGGTC TTC C [BHQ]-3′) was synthesized in the Laboratory of Nucleic Acid Chemistry at the Institute of Chemical Biology and Fundamental Medicine (Novosibirsk, Russia). Real-time fluorescence detection of TDP1 enzyme activity was carried out as described. The recombinant TDP1 was purified as described, using plasmid pET 16B-TDP1, kindly provided by Dr. K.W. Caldecott (University of Sussex, Brighton, UK). To the reaction mixture (200 μL) containing 50 nM oligonucleotide in buffer (50 mM Tris-HCl, pH 8.0, 50 mM NaCl, and 7 mM β-mercaptoethanol), varied concentrations of the tested compounds and purified TDP1 in a final concentration of 1.5 nM were added.
Fluorescence intensity was measured (Ex485/Em520 nm) using POLARstar OPTIMA fluorimeter (BMG LABTECH, GmbH, Ortenberg, Germany) every 1 min for 7 min. The half maximal inhibitory concentrations (IC50) were determined using a six-point concentration response curve and calculated using MARS Data Analysis 2.0 (BMG LABTECH). At least three independent experiments were carried out to obtain the IC50 values.

[3] = Cytotoxicity of compounds, MTT test, HeLa; format: cell-based; settings: human, HeLa cells, compound alone
Procedure: as §1

HeLa cells = experiment: Effect of compounds on topotecan cytotoxicity, MTT test, HeLa; format: cell-based, human
Procedure: as §1
(§2) To study the effect of the compounds on the cytotoxicity of topotecan, an aqueous solution of topotecan was used at concentrations from 0.2 to 2 μM for HeLa cells and from 0.05 to 0.5 μM for HEK293A cells against the background of 10 μM of the compounds. Cells treated with compounds alone without topotecan were used as controls.

[4] = Effect of compounds on topotecan cytotoxicity, MTT test, HEK293A; format: cell-based, human; settings: human
Procedure: as §1, §2

TDP1 [5] = molecular target: T1, TDP1; parameters: method as in PMID 27658793, PMID 31878088; settings: previously found 7-hydroxycoumarin derivatives; cited from earlier work
HEK293A cells = experiment: Effect of compounds on topotecan cytotoxicity, MTT test, HEK293A; format: cell-based, human; settings: 10 µM compound, result in words
Procedure: as §1, §2

[6] = Table 1, recombinant TDP1 1.5 nM, 50 nM oligonucleotide, read-out: TDP1 inhibitory activities (IC50)
[7] = Table 2, TDP1 IC50, partly rounded, read-out: IC50

T1 sequence (Q9NUW8 whole entry): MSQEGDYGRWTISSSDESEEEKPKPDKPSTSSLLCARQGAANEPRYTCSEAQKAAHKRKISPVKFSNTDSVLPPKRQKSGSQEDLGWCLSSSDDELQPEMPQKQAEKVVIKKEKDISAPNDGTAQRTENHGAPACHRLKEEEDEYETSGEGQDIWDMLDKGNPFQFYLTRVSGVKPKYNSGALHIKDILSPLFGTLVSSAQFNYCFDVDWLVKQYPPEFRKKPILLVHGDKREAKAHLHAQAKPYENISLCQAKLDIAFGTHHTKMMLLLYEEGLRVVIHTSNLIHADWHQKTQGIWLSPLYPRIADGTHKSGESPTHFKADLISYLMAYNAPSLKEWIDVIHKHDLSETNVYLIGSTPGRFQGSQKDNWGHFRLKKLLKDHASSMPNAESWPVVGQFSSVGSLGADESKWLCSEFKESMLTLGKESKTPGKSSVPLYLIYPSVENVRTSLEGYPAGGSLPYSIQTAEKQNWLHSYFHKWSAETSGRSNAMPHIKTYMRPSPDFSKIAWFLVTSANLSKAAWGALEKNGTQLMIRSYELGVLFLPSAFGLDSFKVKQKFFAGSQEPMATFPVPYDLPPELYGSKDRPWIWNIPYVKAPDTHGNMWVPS

Row | Compound | CC50 at 72 h [1] [µM] | IC50 (TDP1 [2]; [6]) [µM] | IC50 (TDP1 [2]; [7]) [µM] | CC50 at 72 h [3] [µM] | melting point [°C] | CC50 (HeLa cells; Homo sapiens, HeLa, read-out: Tpc CC50 HeLa) [µM] | CC50 [4] [µM] | IC50 (TDP1 [5]) [µM] | Effect on the cytotoxic effect of topotecan, HEK293A (HEK293A cells) | Effect on the cytotoxicity of topotecan, HeLa (HeLa cells; 10 µM compound, result in words)
1 | COc1ccc(-c2c(C)c3c(OC/C=C(\C)CCC=C(C)C)cccc3oc2=O)cc1 [35a, (E)-5-(3,7-Dimethylocta-2,6-dienyloxy)-3-(4-methoxyphenyl)-4-methyl-2H-chromen-2-one] | > 100 | 6.63 ± 1.12 | 7 ± 1 | > 100 | 85 | – | – | – | – | –
2 | CC[C@@]1(O)C(=O)OCc2c1cc1n(c2=O)Cc2cc3c(CN(C)C)c(O)ccc3nc2-1 [Tpc, topotecan] | – | – | – | – | – | 0.88 ± 0.24 | 0.04 ± 0.012 | – | – | –
3 | Cc1c(-c2ccc(F)cc2)c(=O)oc2cccc(OCC3=CC[C@H]4C[C@@H]3C4(C)C)c12 [33c, 5-(((1R,5S)-6,6-Dimethylbicyclo[3.1.1]hept-2-en-2-yl)methoxy)-3-(4-fluorophenyl)-4-methyl-2H-chromen-2-one] | > 100 | 5.25 ± 0.04 | 5.25 ± 0.04 | 89 ± 7 | 152 | – | – | – | – | –
4 | CC(C)=CCC/C(C)=C/COc1ccc2c(-c3ccc(F)cc3)cc(=O)oc2c1 [compound 12] | – | – | – | – | – | – | – | 0.6 | – | –
5 | Cc1c(-c2ccccc2[N+](=O)[O-])c(=O)oc2cccc(OCC3=CC[C@H]4C[C@@H]3C4(C)C)c12 [38c, 5-(((1R,5S)-6,6-Dimethylbicyclo[3.1.1]hept-2-en-2-yl)methoxy)-4-methyl-3-(2-nitrophenyl)-2H-chromen-2-one] | 32 ± 13 | 3.83 ± 0.29 | 3.8 ± 0.3 | 83 ± 3 | – | – | – | – | – | –
6 | Cc1c(-c2ccccc2Br)c(=O)oc2cccc(OCC3=CC[C@H]4C[C@@H]3C4(C)C)c12 [36c, 3-(2-Bromophenyl)-5-(((1R,5S)-6,6-dimethylbicyclo[3.1.1]hept-2-en-2-yl)methoxy)-4-methyl-2H-chromen-2-one] | > 100 | 4.36 ± 1.14 | 4.36 ± 1.14 | 73.5 ± 0.6 | 157 | – | – | – | – | –
7 | Cc1c(-c2ccc(F)cc2)c(=O)oc2cccc(OCCC3=CC[C@H]4C[C@@H]3C4(C)C)c12 [33d, 5-(2-((1R,5S)-6,6-Dimethylbicyclo[3.1.1]hept-2-en-2-yl)ethoxy)-3-(4-fluorophenyl)-4-methyl-2H-chromen-2-one] | – | 2.51 ± 0.14 | – | – | 114 | – | – | – | – | –
8 | COc1ccccc1-c1c(C)c2c(OC/C=C(\C)CCC=C(C)C)cccc2oc1=O [37a, (E)-5-(3,7-Dimethylocta-2,6-dienyloxy)-3-(2-methoxyphenyl)-4-methyl-2H-chromen-2-one] | 16 ± 0.7 | 1.22 ± 0.04 | 1.22 ± 0.04 | 18 ± 10 | 99 | – | – | – | – | –
9 | COc1ccccc1-c1c(C)c2c(OCC3=CC[C@H]4C[C@@H]3C4(C)C)cccc2oc1=O [37c, 5-(((1R,5S)-6,6-Dimethylbicyclo[3.1.1]hept-2-en-2-yl)methoxy)-3-(2-methoxyphenyl)-4-methyl-2H-chromen-2-one] | 52.3 ± 0.9 | 0.79 ± 0.06 | 0.79 ± 0.06 | 72 ± 2 | 164 | – | – | – | protect cells from the cytotoxic effects of topotecan | –
10 | CC(C)=CCC/C(C)=C/COc1cccc2oc(=O)c(-c3ccc(F)cc3)c(C)c12 [33a, (E)-5-(3,7-Dimethylocta-2,6-dienyloxy)-3-(4-fluorophenyl)-4-methyl-2H-chromen-2-one] | > 100 | 0.13 ± 0.03 | 0.13 ± 0.03 | > 100 | – | – | – | – | – | significantly increased cytotoxicity of topotecan
11 | Cc1c(-c2ccc(Br)cc2)c(=O)oc2cccc(OCCC(C)CCCC(C)C)c12 (stereo not drawn) [34b, 3-(4-Bromophenyl)-5-(3,7-dimethyloctyloxy)-4-methyl-2H-chromen-2-one] | – | – | – | – | 137 | – | – | – | – | –
12 | COc1ccc(-c2c(C)c3c(OCCC(C)CCCC(C)C)cccc3oc2=O)cc1 (stereo not drawn) [35b, 5-(3,7-Dimethyloctyloxy)-3-(4-methoxyphenyl)-4-methyl-2H-chromen-2-one] | > 100 | 0.37 ± 0.16 | 0.4 ± 0.2 | 90.7 ± 0.5 | – | – | – | – | – | –
13 | Cc1c(-c2ccc(Br)cc2)c(=O)oc2cccc(OCC3=CC[C@H]4C[C@@H]3C4(C)C)c12 [34c, 3-(4-Bromophenyl)-5-(((1R,5S)-6,6-dimethylbicyclo[3.1.1]hept-2-en-2-yl)methoxy)-4-methyl-2H-chromen-2-one] | > 100 | 0.9 ± 0.07 | 0.9 ± 0.07 | > 100 | 148 | – | – | – | protect cells from the cytotoxic effects of topotecan | –
14 | COc1ccccc1-c1c(C)c2c(OCCC3=CC[C@H]4C[C@@H]3C4(C)C)cccc2oc1=O [37d, 5-(2-((1R,5S)-6,6-Dimethylbicyclo[3.1.1]hept-2-en-2-yl)ethoxy)-3-(2-methoxyphenyl)-4-methyl-2H-chromen-2-one] | 87 ± 7 | 3.93 ± 0.77 | 3.9 ± 0.8 | 48 ± 4 | 135 | – | – | – | – | –
15 | COc1ccccc1-c1c(C)c2c(OCCC(C)CCCC(C)C)cccc2oc1=O (stereo not drawn) [37b, 5-(3,7-Dimethyloctyloxy)-3-(2-methoxyphenyl)-4-methyl-2H-chromen-2-one] | – | 2.6 ± 0.35 | – | – | 114 | – | – | – | – | –
16 | CC(C)=CCC/C(C)=C/COc1cccc2oc(=O)c(-c3ccccc3Br)c(C)c12 [36a, (E)-3-(2-Bromophenyl)-5-(3,7-dimethylocta-2,6-dienyloxy)-4-methyl-2H-chromen-2-one] | 59 ± 6 | 0.85 ± 0.15 | 0.9 ± 0.2 | 49 ± 2 | – | – | – | – | – | –
17 | CC1(C)C2CC=C(COc3ccc4c5c(c(=O)oc4c3)CCC5)C1C2 (stereo not drawn) [compound 11] | – | – | – | – | – | – | – | 0.7 | – | –
18 | Cc1c(-c2ccccc2[N+](=O)[O-])c(=O)oc2cccc(OCCC(C)CCCC(C)C)c12 (stereo not drawn) [38b, 5-(3,7-Dimethyloctyloxy)-4-methyl-3-(2-nitrophenyl)-2H-chromen-2-one] | – | 2.18 ± 0.13 | – | – | 61 | – | – | – | – | –
19 | Cc1c(-c2ccc(F)cc2)c(=O)oc2cccc(OCCC(C)CCCC(C)C)c12 (stereo not drawn) [33b, 5-(3,7-Dimethyloctyloxy)-3-(4-fluorophenyl)-4-methyl-2H-chromen-2-one] | 40 ± 10 | 0.29 ± 0.07 | 0.29 ± 0.07 | > 100 | 114 | – | – | – | – | –
20 | Cc1c(-c2ccccc2Br)c(=O)oc2cccc(OCCC(C)CCCC(C)C)c12 (stereo not drawn) [36b, 3-(2-Bromophenyl)-5-(3,7-dimethyloctyloxy)-4-methyl-2H-chromen-2-one] | – | ≥ 50 | – | – | 73 | – | – | – | – | –
21 | COc1ccc(-c2c(C)c3c(OCC4=CC[C@H]5C[C@@H]4C5(C)C)cccc3oc2=O)cc1 [35c, 5-(((1R,5S)-6,6-Dimethylbicyclo[3.1.1]hept-2-en-2-yl)methoxy)-3-(4-methoxyphenyl)-4-methyl-2H-chromen-2-one] | > 100 | 1.14 ± 0.15 | 1.1 ± 0.2 | 73 ± 6 | – | – | – | – | – | –
22 | CC(C)=CCC/C(C)=C/COc1cccc2oc(=O)c(-c3ccc(Br)cc3)c(C)c12 [34a, (E)-3-(4-Bromophenyl)-5-(3,7-dimethylocta-2,6-dienyloxy)-4-methyl-2H-chromen-2-one] | 53 ± 1.2 | 1.06 ± 0.06 | 1.06 ± 0.06 | 32 ± 3 | 93 | – | – | – | – | –
23 | CC(C)=CCC/C(C)=C/COc1cccc2oc(=O)c(-c3ccccc3[N+](=O)[O-])c(C)c12 [38a, (E)-5-(3,7-Dimethylocta-2,6-dienyloxy)-4-methyl-3-(2-nitrophenyl)-2H-chromen-2-one] | > 100 | 1.03 ± 0.08 | 1.03 ± 0.08 | > 100 | 73 | – | – | – | protect cells from the cytotoxic effects of topotecan | –
